Reference: the supplement of paper PMC10307832

Tests used:
Test in all cases: relative viability (nuclei count vs DMSO), 5 days (fraction); higher = more cells survive
[1] = compound: C#Cc1cccc(Nc2ncnc3cc(OCCOC)c(OCCOC)cc23)c1 [Erlotinib] + Cc1nc(Nc2ncc(C(=O)Nc3c(C)cccc3Cl)s2)cc(N2CCN(CCO)CC2)n1 [Dasatinib] (partner 0.075 µM)
In short: (§1)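 Nuclei were stained with Hoechst during a one-step fixation (final 0.05% Triton X-100, 1% formaldehyde, 1 ug/ml Hoechst) carried out 5 days after dosing, then counted on 4× images. The cells, lung cancer lines in 1536-well plates, had been dosed by pin tool the day after seeding with one drug alone or a fixed anchor-drug dose plus five library-drug doses (not always all listed) in √10 steps. Relative viability is the nuclei count in treated wells divided by that in vehicle wells, and each value is the median of duplicate plates.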

[2] = compound: O=C(Nc1c[nH]nc1-c1nc2ccc(CN3CCOCC3)cc2[nH]1)NC1CC1 [AT9283] + Cc1nc(NC(=O)N2CCC[C@H]2C(N)=O)sc1-c1ccnc(C(C)(C)C(F)(F)F)c1 [Alpelisib] (partner 2 µM)
In short: as §1

[3] = compound: C#Cc1cccc(Nc2ncnc3cc(OCCOC)c(OCCOC)cc23)c1 [Erlotinib] + COc1cccc2cc(-c3nc([C@H]4CC[C@H](C(=O)O)CC4)n4ncnc(N)c34)[nH]c12 [OSI-027] (partner 0.5 µM)
In short: as §1

[4] = compound: O=C(Nc1c[nH]nc1-c1nc2ccc(CN3CCOCC3)cc2[nH]1)NC1CC1 [AT9283] + N=C(N)NC(=N)NCCc1ccccc1 [Phenformin] (partner 250 µM)
In short: as §1

[5] = compound: C#Cc1cccc(Nc2ncnc3cc(OCCOC)c(OCCOC)cc23)c1 [Erlotinib] + CS(=O)(=O)N1CCN(Cc2cc3nc(-c4cccc5[nH]ncc45)nc(N4CCOCC4)c3s2)CC1 [Pictilisib] (partner 1 µM)
In short: as §1

| Cell Line | relative viability ([1]; first compound 0.02 µM) | relative viability ([1]; first compound 0.2 µM) | relative viability ([1]; first compound 0.6325 µM) | relative viability ([1]; first compound 2 µM) | relative viability ([2]; first compound 0.003 µM) | relative viability ([2]; first compound 0.03 µM) | relative viability ([2]; first compound 0.09487 µM) | relative viability ([2]; first compound 0.3 µM) | relative viability ([3]; first compound 0.02 µM) | relative viability ([3]; first compound 0.2 µM) | relative viability ([3]; first compound 0.6325 µM) | relative viability ([3]; first compound 2 µM) | relative viability ([4]; first compound 0.003 µM) | relative viability ([4]; first compound 0.03 µM) | relative viability ([4]; first compound 0.09487 µM) | relative viability ([4]; first compound 0.3 µM) | relative viability ([5]; first compound 0.02 µM) | relative viability ([5]; first compound 0.2 µM) | relative viability ([5]; first compound 0.6325 µM) | relative viability ([5]; first compound 2 µM) |
| --- | --- | --- | --- | --- | --- | --- | --- | --- | --- | --- | --- | --- | --- | --- | --- | --- | --- | --- | --- | --- |
| NCI-H2085 | 0.235 | 0.2 | 0.266 | 0.249 | 0.946 | 0.894 | 0.615 | 0.411 | 0.787 | 0.448 | 0.349 | 0.245 | 0.702 | 0.664 | 0.597 | 0.264 | 0.459 | 0.46 | 0.513 | 0.358 |
| NCI-H2087 | 0.799 | 0.821 | 0.923 | 0.735 | 1.22 | 0.658 | 0.259 | 0.165 | 0.615 |  | 0.533 | 0.384 | 0.458 | 0.251 | 0.111 | 0.118 | 0.842 | 0.844 | 0.932 |  |
| NCI-H2126 | 0.595 | 0.435 | 0.444 | 0.374 | 0.722 | 0.788 | 0.501 | 0.323 | 0.668 | 0.592 | 0.532 | 0.366 | 0.511 | 0.575 | 0.365 | 0.264 | 0.505 | 0.396 | 0.4 | 0.379 |
| NCI-H2170 | 0.554 | 0.548 | 0.434 | 0.272 | 0.806 | 0.638 | 0.205 | 0.217 | 0.687 | 0.748 | 0.566 | 0.403 | 0.433 | 0.375 | 0.177 | 0.14 | 0.316 | 0.282 | 0.236 | 0.176 |
| NCI-H2228 | 0.625 | 0.492 | 0.5 | 0.368 | 0.831 | 0.676 | 0.176 | 0.136 | 0.643 | 0.537 | 0.525 | 0.366 | 0.363 | 0.256 | 0.129 | 0.107 | 0.385 | 0.405 | 0.351 | 0.348 |
| NCI-H2347 | 0.371 | 0.309 | 0.289 | 0.296 | 1.16 | 1.04 | 0.606 | 0.451 | 0.345 | 0.444 | 0.415 | 0.272 | 0.413 | 0.464 | 0.347 | 0.363 | 0.699 | 0.545 | 0.827 | 0.655 |
| NCI-H2405 | 0.214 | 0.224 | 0.201 | 0.195 | 0.881 | 0.551 | 0.236 | 0.15 | 0.701 |  | 0.614 | 0.591 | 0.415 | 0.362 | 0.28 | 0.251 | 0.36 | 0.452 | 0.589 | 0.469 |
| NCI-H3122 | 0.799 | 0.453 | 0.903 | 0.877 | 0.786 | 0.764 | 0.28 | 0.227 | 0.946 | 1.06 | 0.998 | 0.641 | 0.359 | 0.334 | 0.203 | 0.138 | 0.576 | 0.614 |  | 0.598 |
| PC-3 [JPC-3] | 0.937 | 0.627 | 0.352 | 0.29 | 1.02 | 0.997 | 0.621 | 0.527 | 0.735 | 0.334 | 0.178 | 0.215 | 0.478 | 0.476 | 0.423 | 0.377 | 0.573 | 0.395 | 0.416 | 0.295 |
| PC-14 | 0.0626 | 0.0332 | 0.0591 | 0.0181 | 0.992 | 0.893 | 0.554 | 0.1 | 0.43 | 0.0949 | 0.136 | 0.0777 | 0.51 | 0.468 | 0.197 | 0.109 | 0.221 | 0.0861 | 0.0876 | 0.0584 |
| RERF-LC-KJ | 0.89 | 0.658 | 0.662 | 0.583 | 0.808 | 0.738 | 0.441 | 0.251 | 0.528 | 0.417 | 0.394 | 0.337 | 0.408 | 0.364 | 0.25 | 0.242 | 0.579 | 0.412 | 0.376 | 0.307 |
| SK-LU-1 | 0.185 | 0.211 | 0.186 | 0.164 | 1.2 | 0.426 | 0.304 | 0.254 | 0.305 | 0.369 | 0.302 | 0.253 | 0.582 | 0.431 | 0.179 | 0.179 | 0.695 | 0.665 | 0.598 | 0.58 |
| SK-MES-1 | 0.338 | 0.175 | 0.177 | 0.156 | 0.807 | 0.859 | 0.509 | 0.173 | 0.615 | 0.415 | 0.356 | 0.221 | 0.748 | 0.595 | 0.318 | 0.243 | 0.287 | 0.245 | 0.258 | 0.22 |
| SW 1573 | 0.764 |  | 0.463 | 0.41 | 0.766 | 0.441 | 0.226 | 0.249 | 0.651 | 0.503 | 0.597 | 0.44 | 0.426 | 0.163 | 0.156 | 0.121 | 0.525 | 0.482 | 0.62 | 0.419 |
| UMC-11 | 0.512 | 0.438 | 0.482 | 0.424 | 1.01 | 0.148 | 0.122 | 0.146 |  | 0.412 | 0.492 | 0.424 | 0.308 | 0.184 | 0.178 | 0.171 | 0.795 | 0.7 | 1.04 | 0.816 |
